What was measured:
Assay in all cases: Bliss excess, mean over the matrix (fraction); higher = more synergy
[1] = system: NCI-H727 (Other Solid Carcinomas)
In short: (§1)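 Cell lines grown in DMEM/F12 or RPMI with 10% FBS were plated in 1536-well plates and held 24 hours at 37°C, 5% CO2 before 72 hours of exposure to two-drug dose matrices, with DMSO typically at 0.2%. CellTiter-Glo 2.0 luminescence gave viability, which was converted to inhibition. Vehicle wells were set to 0 and blank wells to 1. Combination Emax is the second-highest inhibition in the matrix, and Bliss excess is the observed combination effect minus the expected EA + EB − EA·EB, where EA and EB are the single-agent effects.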

[2] = system: C-4-I (Cervical Carcinoma)
In short: as §1

[3] = system: OVCAR-4 (Ovarian Carcinoma)
In short: as §1

[4] = system: MLMA (Other Blood Carcinomas)
In short: as §1

TGW (Neuroblastoma) = system: TGW (Neuroblastoma)
In short: as §1

[5] = system: BT-549 (Breast Carcinoma)
In short: as §1

[6] = system: OE19 (Esophageal Adenocarcinoma)
In short: as §1

[7] = system: OSC-20 (Oral Cavity Carcinoma)
In short: as §1

[8] = system: SCC-15 (Oral Cavity Carcinoma)
In short: as §1

[9] = system: EFM-19 (Breast Carcinoma)
In short: as §1

[10] = system: NCI-H1915 (Non-Small Cell Lung Carcinoma)
In short: as §1

[11] = system: KYSE-450 (Esophageal Squamous Cell Carcinoma)
In short: as §1

[12] = system: AMO-1 (Plasma Cell Myeloma)
In short: as §1

[13] = system: HSC-4 (Oral Cavity Carcinoma)
In short: as §1

[14] = system: LU-65 (Non-Small Cell Lung Carcinoma)
In short: as §1

[15] = system: SW13 (Other Solid Carcinomas)
In short: as §1

UACC-62 (Melanoma) = system: UACC-62 (Melanoma)
In short: as §1

[16] = system: KARPAS-299 (T-Cell Non-Hodgkin's Lymphoma)
In short: as §1

[17] = system: Hs-766T (Pancreatic Carcinoma)
In short: as §1

D-263MG (Glioblastoma) = system: D-263MG (Glioblastoma)
In short: as §1

Compound | Bliss excess [1] | Bliss excess [2] | Bliss excess [3] | Bliss excess [4] | Bliss excess (TGW (Neuroblastoma)) | Bliss excess [5] | Bliss excess [6] | Bliss excess [7] | Bliss excess [8] | Bliss excess [9] | Bliss excess [10] | Bliss excess [11] | Bliss excess [12] | Bliss excess [13] | Bliss excess [14] | Bliss excess [15] | Bliss excess (UACC-62 (Melanoma)) | Bliss excess [16] | Bliss excess [17] | Bliss excess (D-263MG (Glioblastoma))
NC1(C(=O)N[C@@H](CCO)c2ccc(Cl)cc2)CCN(c2ncnc3[nH]ccc23)CC1 [Capivasertib] + CCN(CCO)CCCOc1ccc2c(Nc3cc(CC(=O)Nc4cccc(F)c4)[nH]n3)ncnc2c1 [AZD2811] (first compound max 10 µM, 7x7, partner max 1 µM) | -0.0058 | -0.0492 | -0.0092 | -0.0388 | -0.0911 | -0.0197 | -0.0513 | 0.0045 | 0.0105 | -0.0084 | -0.0294 | 0.0066 | 0.0783 | -0.081 | -0.215 | -0.0397 | -0.016 | 0.029 | -0.0559 | 0.0163
NC1(C(=O)N[C@@H](CCO)c2ccc(Cl)cc2)CCN(c2ncnc3[nH]ccc23)CC1 [Capivasertib] + COc1nnc2ccc(N3CCC(c4ccc(OCCN5CCN(C)C(=O)[C@H]5C)cc4)CC3)nn12 [AZD5153] (first compound max 10 µM, 7x7, partner max 1 µM) | 0.0278 | 0.046 | -0.0387 | -0.0177 | -0.0364 | 0.0602 | 0.0561 | 0.0093 | 0.028 | 0.0634 | 0.0289 | -0.0508 | -0.0336 | 0.0211 | -0.152 | -0.0086 | -0.0551 | -0.0453 | 0.0126 | 0.0459
NC1(C(=O)N[C@@H](CCO)c2ccc(Cl)cc2)CCN(c2ncnc3[nH]ccc23)CC1 [Capivasertib] + C[C@@H]1COCCN1C2=NC(=NC(=C2)C3(CC3)[S@](=N)(=O)C)C4=C5C=CNC5=NC=C4 [AZD6738] (first compound max 10 µM, 7x7, partner max 10 µM) | -0.0734 | 0.0234 | -0.0267 | -0.0719 | -0.112 | -0.0724 | -0.0619 | -0.0194 | -0.027 | -0.0072 | -0.081 | -0.0423 | -0.021 | -0.0422 | -0.137 | -0.049 | 0.0231 | -0.0163 | -0.02 | -0.0685
NC1(C(=O)N[C@@H](CCO)c2ccc(Cl)cc2)CCN(c2ncnc3[nH]ccc23)CC1 [Capivasertib] + Cn1cnc2c(F)c(Nc3ccc(Br)cc3Cl)c(C(=O)NOCCO)cc21 [Selumetinib] (first compound max 10 µM, 7x7, partner max 10 µM) | -0.0113 | 0.0609 | -0.0254 | 0.0032 | -0.104 | 0.01 | 0.0786 | 0.0384 | -0.0334 | -0.034 | 0.0366 | 0.0292 | 0.0678 | -0.0133 | -0.0119 | 0.102 | 0.0562 | 0.117 | -0.0045 | 0.0028
COc1cccc2c1C(=O)c1c(O)c3c(c(O)c1C2=O)C[C@@](O)(C(=O)CO)C[C@@H]3O[C@H]1C[C@H](N)[C@H](O)[C@H](C)O1 [Doxorubicin] + Cc1cc2ncnn2cc1Nc1ncc2c(n1)n(C1CCOCC1)c(=O)n2C [AZD7648] (first compound max 1 µM, 7x7, partner max 10 µM) | -0.0417 | 0.1 | -0.0056 | -0.0214 | 0.0041 | 0.0233 | 0.0189 | 0.0204 | 0.0028 | 0.0055 | 0.0154 | 0.0487 | 0.0818 | 0.0047 | 0.0418 | 0.0466 | 0.0306 | 0.1 | -0.012 | 0.032
CS(=O)(=O)CCNCc1ccc(-c2ccc3ncnc(Nc4ccc(OCc5cccc(F)c5)c(Cl)c4)c3c2)o1 [Lapatinib] + C[C@@H](Oc1cc(-c2cnn(C3CCNCC3)c2)cnc1N)c1c(Cl)ccc(F)c1Cl [Crizotinib] (first compound max 10 µM, 7x7, partner max 10 µM) | -0.0097 | 0.0399 | -0.0231 | -0.0721 | -0.0659 | -0.0916 | -0.007 | -0.0542 | -0.0015 | -0.0109 | -0.0169 | -0.0486 | -0.0458 | -0.0097 | -0.0236 | -0.0291 | -0.0153 | 0.0532 | -0.0535 | -0.0621
CC(=O)c1c(C)c2cnc(Nc3ccc(N4CCNCC4)cn3)nc2n(C2CCCC2)c1=O [Palbociclib] + CC1(C)CCC(CN2CCN(c3ccc(C(=O)NS(=O)(=O)c4ccc(NCC5CCOCC5)c([N+](=O)[O-])c4)c(Oc4cnc5[nH]ccc5c4)c3)CC2)=C(c2ccc(Cl)cc2)C1 [Venetoclax] (first compound max 10 µM, 7x7, partner max 1 µM) | 0.0029 | -0.0464 | -0.0523 | -0.15 | -0.014 | -0.034 | -0.0449 | -0.0545 | -0.0589 | -0.0475 | 0.0174 | -0.0407 | -0.0284 | -0.0523 | -0.0781 | -0.0444 | -0.0678 | -0.0496 | -0.0544 | -0.0043
CC(=O)c1c(C)c2cnc(Nc3ccc(N4CCNCC4)cn3)nc2n(C2CCCC2)c1=O [Palbociclib] + Cc1c2c(nn1C)CSCc1cc(n(C)n1)CSc1cc(c3ccccc3c1)OCCCc1c(C(=O)O)n(C)c3c-2c(Cl)ccc13 [AZD5991] (first compound max 10 µM, 7x7, partner max 1 µM) | 0.0353 | -0.115 | -0.0337 | -0.0442 | -0.079 | 0.0106 | 0.0014 | -0.0337 | -0.044 | -0.0005 | -0.0526 | -0.0623 | -0.0375 | -0.0729 | -0.0692 | 0.0252 | -0.0612 | 0.0262 | -0.067 | -0.0135
CC(=O)c1c(C)c2cnc(Nc3ccc(N4CCNCC4)cn3)nc2n(C2CCCC2)c1=O [Palbociclib] + Cn1cnc2c(F)c(Nc3ccc(Br)cc3Cl)c(C(=O)NOCCO)cc21 [Selumetinib] (first compound max 10 µM, 7x7, partner max 10 µM) | -0.0139 | -0.0119 | -0.0471 | 0.0398 | 0.0125 | -0.0254 | 0.0203 | -0.0566 | -0.0721 | -0.0313 | -0.034 | 0.0539 | 0.0844 | -0.0488 | 0.0042 | 0.044 | -0.0359 | 0.0661 | -0.0221 | -0.0077
COc1cccc(OCCCN)c1-c1cc(Nc2cnc(C#N)cn2)n[nH]1 [Prexasertib] + C=CCn1c(=O)c2cnc(Nc3ccc(N4CCN(C)CC4)cc3)nc2n1-c1cccc(C(C)(C)O)n1 [AZD1775] (first compound max 1 µM, partner max 1 µM) | 0.0061 | 0.0337 | 0.0205 | 0.0034 | 0.0499 | 0.0433 | 0.114 | -0.0076 | 0.0227 | 0.025 | 0.0494 | 0.219 | 0.047 | -0.0123 | 0.0474 | 0.0659 | -0.0118 | -0.0076 | -0.0579 | 0.0378
COc1cccc(OCCCN)c1-c1cc(Nc2cnc(C#N)cn2)n[nH]1 [Prexasertib] + CCc1c2c(nc3ccc(O)cc13)-c1cc3c(c(=O)n1C2)COC(=O)[C@]3(O)CC [SN-38] (first compound max 1 µM, 7x7, partner max 0.3 µM) | -0.0425 | 0.0026 | 0.0476 | -0.0732 | -0.0284 | -0.0474 | 0.129 | -0.0477 | -0.0236 | 0.155 | 0.0086 | 0.19 | -0.04 | -0.0372 | -0.0185 | 0.0459 | -0.042 | -0.0223 | -0.0063 | 0.0688
COc1cccc(OCCCN)c1-c1cc(Nc2cnc(C#N)cn2)n[nH]1 [Prexasertib] + CN(C)CCCOc1ccc(-c2ccc3ncc4c(c3c2)n(C2CCOCC2)c(=O)n4C)cn1 [AZD0156] (first compound max 1 µM, 7x7, partner max 1 µM) | -0.0646 | -0.0273 | 0.0086 | -0.0349 | -0.0253 | -0.0094 | 0.0198 | -0.0111 | -0.0333 | -0.0701 | -0.0086 | -0.0713 | -0.0341 | -0.0079 | -0.023 | 0.0256 | 0.0155 | 0.0074 | -0.0062 | 0.0273
COc1cccc(OCCCN)c1-c1cc(Nc2cnc(C#N)cn2)n[nH]1 [Prexasertib] + C[C@@H]1COCCN1C2=NC(=NC(=C2)C3(CC3)[S@](=N)(=O)C)C4=C5C=CNC5=NC=C4 [AZD6738] (first compound max 1 µM, 7x7, partner max 10 µM) | -0.0047 | -0.0449 | -0.025 | -0.0514 | -0.019 | 0.0054 | -0.0277 | -0.0583 | -0.0316 | -0.0296 | -0.0396 | 0.0135 | -0.0361 | 0.0305 | -0.0173 | 0.0627 | -0.0174 | -0.0184 | 0.0101 | -0.019

Reference: the supplement of paper PMC11061612
